The assay concerns the target T1, GlyT1 (Homo sapiens, UniProt P48067).
T1 construct: expressed in transfected cells
T1 sequence (P48067 1-706): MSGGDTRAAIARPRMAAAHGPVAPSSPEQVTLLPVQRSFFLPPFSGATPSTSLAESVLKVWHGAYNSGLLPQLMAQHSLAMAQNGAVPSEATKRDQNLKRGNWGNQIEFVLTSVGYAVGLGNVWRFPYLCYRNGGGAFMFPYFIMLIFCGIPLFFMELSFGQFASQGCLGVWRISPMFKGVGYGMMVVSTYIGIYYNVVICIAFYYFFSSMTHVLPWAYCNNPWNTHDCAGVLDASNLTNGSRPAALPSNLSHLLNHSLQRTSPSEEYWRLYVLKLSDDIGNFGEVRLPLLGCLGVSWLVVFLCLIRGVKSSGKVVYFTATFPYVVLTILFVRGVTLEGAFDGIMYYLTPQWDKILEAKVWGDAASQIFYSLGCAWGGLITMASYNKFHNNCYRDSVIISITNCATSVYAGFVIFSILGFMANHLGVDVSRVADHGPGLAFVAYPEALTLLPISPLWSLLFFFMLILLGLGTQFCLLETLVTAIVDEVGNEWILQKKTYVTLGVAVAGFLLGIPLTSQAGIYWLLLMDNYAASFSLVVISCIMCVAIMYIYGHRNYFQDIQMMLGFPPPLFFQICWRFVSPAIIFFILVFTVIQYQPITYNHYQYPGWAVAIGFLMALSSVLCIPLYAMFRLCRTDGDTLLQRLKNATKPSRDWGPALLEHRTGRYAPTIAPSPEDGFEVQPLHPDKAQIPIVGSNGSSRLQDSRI
Description: Glycine Transporter 1 (GlyT1) uptake assay, scintillation proximity assay of [14C]-glycine uptake. The assay is classed as cell-based. The settings on record: [14C]-glycine uptake; read-out: GlyT1 (pIC50) (converted). A digest of the protocol: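 IC50 values were derived by four-parameter logistic fitting of counts. The 2× compound solutions were made by 1:100 dilution into HBSS of DMSO serial dilutions.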
For orientation: SPA uses beads or plates that emit light when radiolabelled molecules are held near them.

Turning to `COc1c(S(C)(=O)=O)ccc(O[C@@H](C)C(F)(F)F)c1C(=O)N1CC(Oc2cc(F)ccc2F)C1` [Example 205, 3-(2,5-Difluorophenoxy)-1-(3-methanesulfonyl-2-methoxy-6-{[(2S)-1,1,1-trifluoropropan-2-yl]oxy}benzoyl)azetidine], the IC50 was < 100 nM.

Regarding `CC(Oc1ccc(C#N)c(Cl)c1C(=O)N1CC(c2ccncc2)C1)C(F)(F)F` (stereo not drawn) [Example 72, 2-Chloro-3-{[3-(pyridin-4-yl)azetidin-1-yl]carbonyl}-4-[(1,1,1-trifluoropropan-2-yl)oxy]benzonitrile], the IC50 was 100 to 1000 nM.

For the molecule `COc1c(S(C)(=O)=O)ccc(OCC(F)(F)F)c1C(=O)N1CC(c2ncc(C(F)(F)F)cc2F)C1` [Example 231, 3-Fluoro-2-{1-[3-methanesulfonyl-2-methoxy-6-(2,2,2-trifluoroethoxy)benzoyl]azetidin-3-yl}-5-(trifluoromethyl)pyridine], the IC50 was 100 to 1000 nM.

On to `COc1c(S(C)(=O)=O)ccc(OCC(C)(C)C)c1C(=O)N1CC(c2ccc3ncoc3c2)C1` [Example 249, 6-{1-[6-(2,2-Dimethylpropoxy)-3-methanesulfonyl-2-methoxybenzoyl]azetidin-3-yl}-1,3-benzoxazole], for which the IC50 was 100 to 1000 nM.

As for `COc1ccc(C2CN(C(=O)c3c(OC(C)C(F)(F)F)ccc(C#N)c3Cl)C2)cc1` (stereo not drawn) [Example 80, 2-Chloro-3-{[3-(4-methoxyphenyl)azetidin-1-yl]carbonyl}-4-[(1,1,1-trifluoropropan-2-yl)oxy]benzonitrile], the IC50 is 1000 to 10000 nM.

As to `CC(Oc1ccc(C#N)c(Cl)c1C(=O)N1CC(Oc2cccnc2)C1)C(F)(F)F` (stereo not drawn) [Example 103, 2-Chloro-3-{[3-(pyridin-3-yloxy)azetidin-1-yl]carbonyl}-4-[(1,1,1-trifluoropropan-2-yl)oxy]benzonitrile], the IC50 is < 100 nM.

As to `COc1c(C#N)ccc(C2(F)CCOCC2)c1C(=O)N1CC(c2cccc(C(F)(F)F)c2)C1` [Example 23, 4-(4-Fluorooxan-4-yl)-2-methoxy-3-({3-[3-(trifluoromethyl)phenyl]azetidin-1-yl}carbonyl)benzonitrile], the IC50 was 100 to 1000 nM.

Regarding `COc1c(C#N)ccc(O[C@@H](C)C(F)(F)F)c1C(=O)N1CC(Oc2ccc(C(F)(F)F)cc2)C1` [Example 30, 2-Methoxy-3-({3-[4-(trifluoromethyl)phenoxy]azetidin-1-yl}carbonyl)-4-{[(2S)-1,1,1-trifluoropropan-2-yl]oxy}benzonitrile], the IC50 is 100 to 1000 nM.

Consider `COc1c(S(C)(=O)=O)ccc(O[C@@H](C)C(F)(F)F)c1C(=O)N1CC(Oc2cccc(F)c2F)C1` [Example 206, 3-(2,3-Difluorophenoxy)-1-(3-methanesulfonyl-2-methoxy-6-{[(2S)-1,1,1-trifluoropropan-2-yl]oxy}benzoyl)azetidine], for which the IC50 is < 100 nM.

Regarding `COc1c(C#N)ccc(O[C@@H](C)C(F)(F)F)c1C(=O)N1CC(c2ccccc2C#N)C1` [Example 123, 3-{[3-(2-Cyanophenyl)azetidin-1-yl]carbonyl}-2-methoxy-4-{[(2S)-1,1,1-trifluoropropan-2-yl]oxy}benzonitrile], the IC50 is < 100 nM.

For `COc1c(C#N)ccc(O[C@@H](C)C(F)(F)F)c1C(=O)N1CC(c2ccc(C(F)(F)F)cc2)C1` [Example 178, 2-Methoxy-3-({3-[4-(trifluoromethyl)phenyl]azetidin-1-yl}carbonyl)-4-{[(2S)-1,1,1-trifluoropropan-2-yl]oxy}benzonitrile], the IC50 is 100 to 1000 nM.

As for `COc1c(C#N)ccc(OC(C)C(F)(F)F)c1C(=O)N1CC(Oc2ccc(F)c(F)c2)C1` (stereo not drawn) [Example 67, 3-{[3-(3,4-Difluorophenoxy)azetidin-1-yl]carbonyl}-2-methoxy-4-[(1,1,1-trifluoropropan-2-yl)oxy]benzonitrile], the IC50 was 1000 to 10000 nM.

These data come from patent US10040759B2, “Substituted azetidinyl compounds as GlyT1 inhibitors” (DART NEUROSCIENCE (CAYMAN) LTD., priority 2014, dated 2018).
